The source of these data is article PMC9940855, “First-in-Class Dual Hybrid Carbonic Anhydrase Inhibitors and Transient Receptor Potential Vanilloid 1 Agonists Revert Oxaliplatin-Induced Neuropathy” (Journal of Medicinal Chemistry, 2023).

Molecules are shown by their SMILES. Entries after “also recorded” stand apart in the source; their conditions may differ.

The target in one experiment is T1, hCA IX (Homo sapiens, UniProt Q16790).
T1 construct: made in house
Type of experiment: biochemical.

The target in the next experiment is T2, TRPV1 receptor (Homo sapiens, UniProt Q8NER1).
T2 construct: expressed in transfected cells
T2 sequence (Q8NER1 whole entry): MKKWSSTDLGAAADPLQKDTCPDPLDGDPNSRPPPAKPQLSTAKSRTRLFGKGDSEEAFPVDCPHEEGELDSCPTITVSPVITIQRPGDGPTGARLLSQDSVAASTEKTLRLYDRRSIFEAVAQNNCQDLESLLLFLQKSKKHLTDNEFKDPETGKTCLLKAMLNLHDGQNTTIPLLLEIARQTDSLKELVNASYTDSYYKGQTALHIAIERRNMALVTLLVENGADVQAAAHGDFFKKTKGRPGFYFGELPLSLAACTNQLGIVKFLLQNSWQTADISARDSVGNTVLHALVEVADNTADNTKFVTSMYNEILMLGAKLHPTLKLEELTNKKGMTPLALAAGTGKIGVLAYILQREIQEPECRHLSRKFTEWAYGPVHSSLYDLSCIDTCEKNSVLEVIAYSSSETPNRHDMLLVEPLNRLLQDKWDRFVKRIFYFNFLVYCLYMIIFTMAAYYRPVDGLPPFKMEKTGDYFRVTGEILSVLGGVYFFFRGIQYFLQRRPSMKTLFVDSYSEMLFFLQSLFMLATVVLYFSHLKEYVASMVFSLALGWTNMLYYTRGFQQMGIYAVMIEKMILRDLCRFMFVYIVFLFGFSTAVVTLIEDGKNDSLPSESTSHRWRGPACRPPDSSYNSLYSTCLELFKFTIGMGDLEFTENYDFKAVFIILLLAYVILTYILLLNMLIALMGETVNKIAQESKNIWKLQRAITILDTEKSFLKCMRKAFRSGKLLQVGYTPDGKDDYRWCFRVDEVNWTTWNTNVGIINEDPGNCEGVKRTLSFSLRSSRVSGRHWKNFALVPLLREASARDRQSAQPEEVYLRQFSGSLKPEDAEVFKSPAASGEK
The experiment in a line: TRPV1 assay, Fluo-4NW fluorescence in SH-SY5Y-TRPV1 cells. The format is cell-based. The conditions noted are these: read-out: EC50 on TRPV1 receptor activity (agonism). The method, then: SH-SY5Y-TRPV1 cells (kindly provided by Johanna Lilja and Anna Forsby (University of Stockholm, Stockholm, Sweden))[40] were cultured in 96 wells. Upon 90% confluence had been reached, the cells were loaded with 5 μM Fluo-4NW for 1 h at 37 °C. […] Briefly, after measuring the basal fluorescence of the plate (four cycles), testing compounds were added to the plate, and the fluorescence was measured for additional 10 cycles; thereafter, 10 μM capsaicin was added with a microinjector and the fluorescence was monitored for an additional 10 cycles.

For a further experiment, the target named is hCA II (Homo sapiens, UniProt P00918). The conditions noted are these: for Ki: read-out: KI hCA II, stopped-flow CO2 hydrase assay, mean from three different assays, errors ±5–10%.
For the next experiment, the target named is hCA IV (Homo sapiens, UniProt P22748). The conditions noted are these: read-out: KI hCA IV; stopped-flow CO2 hydrase assay; mean from three different assays, errors ±5–10%.
Sequence of hCA IV (P22748 19-312): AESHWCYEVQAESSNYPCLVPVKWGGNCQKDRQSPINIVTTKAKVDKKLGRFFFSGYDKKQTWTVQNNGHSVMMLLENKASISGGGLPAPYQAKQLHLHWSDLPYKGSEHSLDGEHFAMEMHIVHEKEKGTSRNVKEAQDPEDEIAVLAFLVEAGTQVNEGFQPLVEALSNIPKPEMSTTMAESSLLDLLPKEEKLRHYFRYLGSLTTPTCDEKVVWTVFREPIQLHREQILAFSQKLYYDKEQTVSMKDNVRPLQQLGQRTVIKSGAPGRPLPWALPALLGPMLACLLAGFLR
The next experiment addresses hCA VII (Homo sapiens, UniProt P43166). The settings on record: read-out: KI hCA VII; stopped-flow CO2 hydrase assay; mean from three different assays, errors ±5–10%.
In another experiment the target is hCA XII (Homo sapiens, UniProt O43570). The settings on record: read-out: KI hCA XII; stopped-flow CO2 hydrase assay; mean from three different assays, errors ±5–10%.
Sequence of hCA XII (O43570 25-354): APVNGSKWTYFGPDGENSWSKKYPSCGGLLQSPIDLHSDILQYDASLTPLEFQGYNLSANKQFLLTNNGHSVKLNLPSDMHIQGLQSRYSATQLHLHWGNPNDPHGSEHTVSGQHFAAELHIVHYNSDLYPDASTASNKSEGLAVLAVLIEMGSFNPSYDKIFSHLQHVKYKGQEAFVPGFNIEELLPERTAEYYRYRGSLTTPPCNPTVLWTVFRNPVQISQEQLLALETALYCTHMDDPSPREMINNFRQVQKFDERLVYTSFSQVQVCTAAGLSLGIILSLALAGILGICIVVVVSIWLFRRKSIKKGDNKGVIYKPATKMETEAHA
Another experiment concerns the target hCA I (Homo sapiens, UniProt P00915). The settings on record: read-out: KI hCA I; stopped-flow CO2 hydrase assay; mean from three different assays, errors ±5–10%.
In experiment [1] the test system is oxaliplatin-induced neuropathic pain (cold allodynia). The experiment in a line: Cold plate test in mouse model of oxaliplatin-induced neuropathic pain. The format is in vivo. The settings on record: p.o., acute; for pain-relieving effect (licking latency, Cold plate test), in words: 10–100 mg/kg; for time of peak pain-relieving effect post-administration: up to 100 mg/kg.

Sequence of hCA I (P00915 whole entry): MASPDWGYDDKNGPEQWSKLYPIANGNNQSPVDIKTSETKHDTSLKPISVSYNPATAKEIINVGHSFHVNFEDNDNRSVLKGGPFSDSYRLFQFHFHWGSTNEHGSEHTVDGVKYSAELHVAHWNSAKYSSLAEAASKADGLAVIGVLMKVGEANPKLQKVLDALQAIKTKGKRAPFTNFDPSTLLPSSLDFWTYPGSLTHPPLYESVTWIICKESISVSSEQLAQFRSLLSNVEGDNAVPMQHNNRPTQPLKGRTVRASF
Sequence of hCA VII (P43166 whole entry): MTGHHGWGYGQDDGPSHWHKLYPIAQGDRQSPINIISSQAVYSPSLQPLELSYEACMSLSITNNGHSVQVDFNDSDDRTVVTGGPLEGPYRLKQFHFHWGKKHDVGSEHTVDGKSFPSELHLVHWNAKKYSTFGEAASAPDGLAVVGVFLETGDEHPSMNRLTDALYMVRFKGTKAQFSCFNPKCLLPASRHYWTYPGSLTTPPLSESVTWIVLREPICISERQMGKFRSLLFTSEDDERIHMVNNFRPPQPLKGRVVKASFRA

For orientation: Ki means the equilibrium dissociation constant of an inhibitor or competing ligand from its target. One may read the EC50 as the midpoint of the concentration-response curve. Take `NS(=O)(=O)c1ccc(N2CC[C@@H](NC(=O)Nc3ccc(F)cc3)C2)nc1` [7a, (R)-6-(3-(3-(4-Fluorophenyl)ureido)pyrrolidin-1-yl)pyridine-3-sulfonamide]: the inhibition constant Ki on hCA IX was determined as 32.2 nM; at hCA II it was 15.1 nM; on hCA IV it was 2660 nM; on hCA VII it was 6.6 nM; at hCA XII, 59.3 nM. Moreover, the EC50 at TRPV1 receptor is over 100000 nM.
As for `NS(=O)(=O)c1ccc(N2CC[C@@H](NC(=O)Nc3ccc(Cl)c(Cl)c3)C2)nc1` [14a, (R)-6-(3-(3-(3,4-Dichlorophenyl)ureido)pyrrolidin-1-yl)pyridine-3-sulfonamide], on TRPV1 receptor, the EC50 was over 100000 nM. Also, the Ki at hCA II amounted to 82.2 nM; on hCA IV it was 4900 nM; on hCA VII, 26.5 nM; at hCA XII it was 7.2 nM.
For the compound `NS(=O)(=O)c1ccc(N2CC[C@@H](NC(=O)Nc3ccc4c(c3)OCCO4)C2)nc1` [15a, (R)-6-(3-(3-(2,3-Dihydrobenzo[b][1,4]dioxin-6-yl)ureido)pyrrolidin-1-yl)pyridine-3-sulfonamide], the Ki came out at 192 nM at hCA IX; 72.2 nM on hCA I; 50.2 nM on hCA II; 3560 nM at hCA IV; 9.4 nM at hCA VII; 6.7 nM at hCA XII. The EC50 at TRPV1 receptor is over 100000 nM.
For `COc1ccccc1NC(=O)N[C@@H]1CCN(c2ccc(S(N)(=O)=O)cn2)C1` [18a, (R)-6-(3-(3-(2-Methoxyphenyl)ureido)pyrrolidin-1-yl)pyridine-3-sulfonamide], the Ki at hCA IX is 36.1 nM; on hCA I, 73.5 nM; at hCA II it was 287 nM; at hCA IV, 5080 nM; on hCA VII it was 68.7 nM; on hCA XII, 72.2 nM. Further, the EC50 on TRPV1 receptor was over 100000 nM.
For `NS(=O)(=O)c1ccc(N2CC[C@@H](NC(=O)Nc3ccc([N+](=O)[O-])cc3)C2)nc1` [19a, (R)-6-(3-(3-(4-Nitrophenyl)ureido)pyrrolidin-1-yl)pyridine-3-sulfonamide], the Ki turned out to be 145 nM at hCA IX; 252 nM on hCA I; 437 nM at hCA II; 56.1 nM at hCA VII; 57.4 nM on hCA XII. The 50% effective concentration (EC50) at TRPV1 receptor was over 100000 nM.
With `NS(=O)(=O)c1ccc(N2CC[C@@H](NC(=S)Nc3ccccc3F)C2)nc1` [21a, (R)-6-(3-(3-(2-Fluorophenyl)thioureido)pyrrolidin-1-yl)pyridine-3-sulfonamide], the inhibition constant Ki amounted to 378 nM at hCA IX; 31.3 nM on hCA I; 14.9 nM at hCA II; 3090 nM at hCA IV; 8.3 nM at hCA XII. For the same compound, the EC50 at TRPV1 receptor was over 100000 nM.
On to `NS(=O)(=O)c1ccc(N2CC[C@@H](NC(=O)Nc3c(F)cc(F)cc3Br)C2)nc1` [22a, (R)-6-(3-(3-(2-Bromo-4,6-difluorophenyl)ureido)pyrrolidin-1-yl)pyridine-3-sulfonamide], for which the EC50 on TRPV1 receptor was over 100000 nM. Besides, the inhibition constant (Ki) at hCA II amounted to 446 nM; on hCA IV, 4880 nM; on hCA VII, 41.1 nM; at hCA XII it was 8.1 nM.
With `NS(=O)(=O)c1ccc(NC(=S)N[C@@H]2CCN(c3ccccn3)C2)cc1` [35a, (R)-4-(3-(1-(Pyridin-2-yl)pyrrolidin-3-yl)thioureido)benzenesulfonamide], the Ki on hCA IX amounted to 9.6 nM; at hCA I, 48 nM; at hCA IV, 774 nM; at hCA VII, 9.7 nM; at hCA XII, 9 nM. Besides, the EC50 at TRPV1 receptor was over 100000 nM.
Take `NS(=O)(=O)c1cccc(NC(=S)N[C@@H]2CCN(c3ccccn3)C2)c1` [36a, (R)-3-(3-(1-(Pyridin-2-yl)pyrrolidin-3-yl)thioureido)benzenesulfonamide]: the EC50 at TRPV1 receptor is over 100000 nM. The inhibition constant (Ki) was 85.1 nM at hCA I, 9.6 nM at hCA II, 320 nM at hCA IV and 55.4 nM at hCA VII.
For the compound `NS(=O)(=O)c1ccc(NC(=S)N[C@@H]2CCN(c3cccc([N+](=O)[O-])n3)C2)cc1` [37a, (R)-4-(3-(1-(6-Nitropyridin-2-yl)pyrrolidin-3-yl)thioureido)benzenesulfonamide], the Ki at hCA IX was found to be 16.8 nM; at hCA I it was 74.8 nM; on hCA II, 6.7 nM; on hCA IV it was 471 nM; at hCA VII, 175 nM; on hCA XII, 409 nM. The 50% effective concentration (EC50) at TRPV1 receptor is 8000 nM. In addition, the “pain-relieving effect (licking latency, Cold plate test), in words” value in experiment [1] (day 15) was “more potent and effective than (R)-12a”. Besides, the “time of peak pain-relieving effect post-administration” value in experiment [1] (Cold plate test) was 30 min. In addition, on hCA II (ratio of Ki), the “fold higher efficacy in inhibiting CA II over (R)-12a” value was 10.4 fold.
As to `NS(=O)(=O)c1cccc(NC(=S)N[C@@H]2CCN(c3cccc([N+](=O)[O-])n3)C2)c1` [38a, (R)-3-(3-(1-(6-Nitropyridin-2-yl)pyrrolidin-3-yl)thioureido)benzenesulfonamide], the Ki on hCA IX amounted to 162 nM; at hCA I it was 78.5 nM; on hCA II, 8.6 nM; at hCA IV, 238 nM; at hCA VII, 83.6 nM; on hCA XII it was 238 nM. The EC50 at TRPV1 receptor was 44200 nM.
In the case of `NS(=O)(=O)c1ccc(NC(=O)N[C@@H]2CCN(c3cccc([N+](=O)[O-])n3)C2)cc1` [43a, (R)-4-(3-(1-(6-Nitropyridin-2-yl)pyrrolidin-3-yl)ureido)benzenesulfonamide], the inhibition constant Ki at hCA IX came to 93.6 nM; at hCA I it was 68.3 nM; at hCA II, 7.5 nM; on hCA IV, 2290 nM; at hCA VII, 164 nM; on hCA XII, 83.7 nM. Also, at TRPV1 receptor, the 50% effective concentration (EC50) was over 100000 nM. Also, in experiment [1] (day 15, listed as (R)-43a), the “pain-relieving effect (licking latency, Cold plate test), in words” value is “dose-dependent effectiveness; also recorded: moderate and shorter relieving outcomes”. The “time at which the effect was suppressed” value in experiment [1] (Cold plate test) is 75 min. Also, the “time of peak pain-relieving effect post-administration” value in experiment [1] (Cold plate test) is 45 min.
With `NS(=O)(=O)c1cccc(NC(=O)N[C@@H]2CCN(c3ccc(C(F)(F)F)cn3)C2)c1` [46a, (R)-3-(3-(1-(5-(Trifluoromethyl)pyridin-2-yl)pyrrolidin-3-yl)ureido)benzenesulfonamide], the concentration giving a half-maximal response (EC50) on TRPV1 receptor is 37300 nM. The Ki at hCA I worked out at 199 nM; on hCA II it was 8.4 nM; on hCA XII it was 6.6 nM.
